Publication PMC11237399, “Synergistic effects of sulopenem in combination with cefuroxime or durlobactam against Mycobacterium abscessus” (mBio, 2024)

What was measured:
[1] = tested on: T1, Mycobacteroides abscessus subsp. abscessus Mab 122; test: microbe, parasite or virus in culture; parameters: species or system Mycobacterium abscessus clinical isolates; broth microdilution MIC in Middlebrook 7H9 with OADC and Tween 80, 30 C, 3-7 days, visible growth; conditions: single agent, read-out: MIC50 (μg/ml) Alone
T1 construct: clinical isolate Mab122
Procedure: (§1) Minimum inhibitory concentrations (MICs) of sulopenem and CXM were determined using microdilution. Approximately 5 × 10^5 colony-forming units (CFU) per milliliter were inoculated into Middlebrook 7H9 broth supplemented with 10% (vol/vol) oleic albumin dextrose catalase (OADC) and 0.05% (vol/vol) Tween 80. When CXM is combined with sulopenem, the CXM is added at a fixed concentration of 4 µg/mL to serial dilutions of sulopenem. Isolates were incubated with test agents at 30°C for 3–7 days, and MIC was defined as the lowest antibiotic concentration that prevented visible bacterial growth. We use active moiety compounds, like cefuroxime salt, and not cefuroxime axetil. The 54 clinical isolates analyzed in this study were obtained from deidentified patients. To ensure consistency and reliability, we specifically selected isolates from our well-characterized whole genome-sequenced clinical isolates belonging to the Mycobacterium abscessus subspecies abscessus. Of these, 34 isolates were sourced from National Jewish Health, whereas 11 and 9 isolates were obtained from University Hospitals Cleveland Medical Center and Cleveland Metrohealth, respectively. Additionally, ATCC 19977 was acquired from the American Type Culture Collection (ATCC). The active ingredient cefuroxime (CXM) salts and avibactam (AVI) were purchased from AchemBlock, sulopenem was sourced from Iterum Therapeutics, and durlobactam (DUR) was provided from Entasis Therapeutics. All β-lactams and BLIs were prepared in sterile, distilled water or in broth and filter-sterilized with a 0.22 µm PES syringe filter.

[2] = tested on: T2, Mycobacteroides abscessus subsp. abscessus Mab 686; test: microbe, parasite or virus in culture; parameters: species or system Mycobacterium abscessus clinical isolates; broth microdilution MIC in Middlebrook 7H9 with OADC and Tween 80, 30 C, 3-7 days, visible growth; conditions: single agent, read-out: MIC50 (μg/ml) Alone
T2 construct: clinical isolate Mab686
Procedure: as §1

PBP B = biological target: T3, PBP B (Mycobacteroides abscessus, UniProt B1MP31); test: intact-protein UPLC-ESI-MS (Q-TOF); assay type: binding; conditions: covalent; 1:20 enzyme:ligand, 50 mM Tris-HCl pH 7.5, 300 mM NaCl, room temperature
T3 construct: gene MAB_2000; truncated (delta 1-41), pET28a(+), E. coli BL2 (DE3), His tag cut by TEV
T3 sequence (B1MP31 42-642): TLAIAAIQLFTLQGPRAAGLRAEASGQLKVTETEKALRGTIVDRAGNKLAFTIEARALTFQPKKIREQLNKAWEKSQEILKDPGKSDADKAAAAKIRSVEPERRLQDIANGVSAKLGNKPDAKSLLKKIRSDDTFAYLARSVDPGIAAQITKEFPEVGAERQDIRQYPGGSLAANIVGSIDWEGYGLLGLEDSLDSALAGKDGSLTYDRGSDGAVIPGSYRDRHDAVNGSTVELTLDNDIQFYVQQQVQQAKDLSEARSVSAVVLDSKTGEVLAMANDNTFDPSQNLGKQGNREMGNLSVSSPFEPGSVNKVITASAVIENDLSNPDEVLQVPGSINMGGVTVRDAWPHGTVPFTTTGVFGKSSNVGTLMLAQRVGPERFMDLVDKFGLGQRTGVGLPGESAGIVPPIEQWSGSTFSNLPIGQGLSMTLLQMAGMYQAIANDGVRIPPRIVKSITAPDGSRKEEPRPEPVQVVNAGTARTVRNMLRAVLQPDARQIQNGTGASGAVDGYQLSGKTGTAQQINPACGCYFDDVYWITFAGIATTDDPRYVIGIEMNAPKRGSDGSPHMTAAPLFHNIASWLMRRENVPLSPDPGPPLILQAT

LdtMab2 = biological target: T4, LdtMab2 (Mycobacteroides abscessus, UniProt B1MMQ4); test: intact-protein UPLC-ESI-MS (Q-TOF); assay type: binding; conditions: covalent; 1:20 enzyme:ligand, 50 mM Tris-HCl pH 7.5, 300 mM NaCl, room temperature
T4 construct: gene MAB_1530; truncated (delta 1-41), pET28a(+), E. coli BL2 (DE3), His tag cut by TEV
T4 sequence (B1MMQ4 42-406): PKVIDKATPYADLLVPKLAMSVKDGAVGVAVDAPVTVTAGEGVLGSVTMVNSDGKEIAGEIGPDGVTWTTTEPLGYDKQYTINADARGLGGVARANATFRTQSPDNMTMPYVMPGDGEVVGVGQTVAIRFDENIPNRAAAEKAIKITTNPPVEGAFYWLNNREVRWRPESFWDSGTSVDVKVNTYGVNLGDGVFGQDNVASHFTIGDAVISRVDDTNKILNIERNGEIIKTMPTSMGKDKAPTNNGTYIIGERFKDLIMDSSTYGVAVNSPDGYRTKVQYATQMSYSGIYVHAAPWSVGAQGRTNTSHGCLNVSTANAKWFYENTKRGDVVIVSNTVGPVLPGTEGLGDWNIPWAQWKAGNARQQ

| Compound | MIC50 [1] [µg/mL] | MIC50 [2] [µg/mL] | intact-protein UPLC-ESI-MS (Q-TOF) (PBP B) | intact-protein UPLC-ESI-MS (Q-TOF) (LdtMab2) |
| --- | --- | --- | --- | --- |
| NC(=O)[C@@H]1CC[C@@H]2CN1C(=O)N2OS(=O)(=O)O [avibactam] | > 128 | > 128 |  |  |
| CO/N=C(\C(=O)N[C@@H]1C(=O)N2C(C(=O)O)=C(COC(N)=O)CS[C@H]12)c1ccco1 [cefuroxime] | 4 | 8 | CXM engaged solely with LdtMab2 and PBP B | CXM engaged solely with LdtMab2 and PBP B |
| C[C@@H](O)[C@H]1C(=O)N2C(C(=O)O)=C(S[C@H]3CC[S@@+]([O-])C3)S[C@H]12 [sulopenem] | 0.5 | 2 |  |  |
